Experimental data reported in US20230331781A1, “PAR4 DERIVED PEPTIDES, ANALOGS AND USES THEREOF” (Yissum Research Development Company of the Hebrew …, priority 2019, published 2023).
“Also recorded” adds a separate entry of the source. Numbered stars: 1 amine (or outer) side, 2 acyl side, 3 side chain; on linkers, the order of the positions; unused ones are H or OH. Bridge positions count the residues as written; N and C are the ends. Square brackets hold non-standard residues; d marks the D form. Ends that are not written are not given here. GlyBU(C4) = Gly building unit (N-alpha-functionalized Gly) carrying a C4 alkyl chain (n = m = 4), bridged through a urea group; CO = O=C([*:1])[*:2]

Assays:
RKO/hPar4 tumors = assay: Pre-formed RKO/hPar4 tumors in nude mice; format: in vivo; conditions: injection s.c. near tumor started 3 weeks post inoculation (~1 cm tumors), 5 mg/kg
Experimental: Tumors generated by the RKO/Par4 clone/s (1×10^6 cells, subcutaneously). Injections of the inhibitor Pc(4-4) have started 3 weeks post cell inoculation (5 mg/kg, every other day). FIG. 12B—levels of Par4 in stable clone/s of RKO cells. Error bars show s.d.; *** P<0.001. FIG. 12C—pre-formed tumors. Mice bearing tumors formed (˜1 cm) prior to the Pc(4-4) injection. FIG. 12D tumor volume (cm3). Tumors generated throughout the experimental period versus injections of Pc(4-4) initiated 3 weeks post cell inoculation. Each treatment group contained 7 mice. This is a representative of three times performed experiments. Error bars show s.d.; ** P<0.01.
In this experimental design, RKO/hPar4 clone/s (1×10^6 cells) were implanted in nude mice (Par4 levels in the clones) (FIG. 12A-12D). Tumors were slowly formed (during 3 weeks). At the time tumors were distinctly observed (˜1 cm length, FIG. 12C), the Pc(4-4) inhibitor was injected s.c. in the vicinity of the tumor site (3×week; 5 mg/kg). At the time the experiment was terminated large RKO/hPar4 tumors were observed. […] Activation of PAR4 leads to the phosphorylation of EGFR. AYPGKF activation of PAR4 leads to pTyr-EGFR. This was shown by co-transfection of HEK293 cells with hPar4 and egfr followed by AYPGKF PAR4 activation. Western blot detection of EGFR Tyr (Y)-phosphorylation (pY-EGFR), was carried-out by anti phospho-Tyr antibodies (FIG. 13A). […]

PAR2 and Akt = biological target: T1, PAR2 and Akt (Homo sapiens, UniProt P31749); assay: PAR2-Akt association, immunoprecipitation in HEK293 cells transfected with Par2 and SLIGKV activated; format: cell-based; conditions: HEK 293 cells, flag-hPar2, SLIGKV 200 μM; 150 μM, 1 hr prior to activation; FIG. 11
T1 construct: FLAG; expressed in transfected cells; host or cells: HEK293
T1 sequence (P31749 whole entry): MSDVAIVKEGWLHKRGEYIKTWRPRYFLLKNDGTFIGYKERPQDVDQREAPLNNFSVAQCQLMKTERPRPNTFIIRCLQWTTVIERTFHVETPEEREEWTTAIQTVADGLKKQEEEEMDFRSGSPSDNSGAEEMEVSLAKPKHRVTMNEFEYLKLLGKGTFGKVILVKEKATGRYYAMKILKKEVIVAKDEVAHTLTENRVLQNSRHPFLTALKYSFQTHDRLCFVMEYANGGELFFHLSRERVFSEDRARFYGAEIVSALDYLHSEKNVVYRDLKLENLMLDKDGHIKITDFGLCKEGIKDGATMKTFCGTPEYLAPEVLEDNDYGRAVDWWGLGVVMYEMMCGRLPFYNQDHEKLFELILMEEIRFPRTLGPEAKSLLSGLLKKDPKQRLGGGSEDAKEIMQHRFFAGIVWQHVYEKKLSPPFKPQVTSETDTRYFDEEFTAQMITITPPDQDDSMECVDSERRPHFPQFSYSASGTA
Experimental: HEK293 cells were transiently transfected with Par2 followed by SLIGKV PAR2 activation in the presence and absence of PAR4 c(4-4) at 150 μM. IP of cell lysates following different time of activation was carried out using anti PAR2 abs. Detection of Akt was performed by anti Akt abs. β-actin serves as a control gene for loading.
Briefly, HEK 293 cells were transfected with 0.8 μg flag-hPar2 and serum starved overnight. PAR(4-4) in concentration of 150 μM was applied onto the cell monolayer for 1 hr prior to PAR2 activation (by the peptide SLIGKV—200 μM) for the indicated time periods (overall transfection period is 48 hrs).
The cells (HEK 293) were solubilized and lysed and protein cell lysates (400 μg) were used for immunoprecipitation analysis, as described in Example 4.

inhibition of PAR2-AKT association (IP) (PAR2 and Akt): efficiently inhibited
Substance: Pc(4-4): backbone cyclic analog of Formula I, m=n=4, ring size 30 atoms (S[GlyBU(C4)]EFRDK[GlyBU(C4)]; bridge 2-8 via CO; not fully specified; printed as SZ1EFRDKX3)
size of pre-formed tumors (RKO/hPar4 tumors): distinctly smaller tumors; also recorded: inhibits
